Measurements: patent US20150309031A2, “COMPOSITIONS AND METHODS FOR PROGNOSIS AND TREATMENT OF CANCER” (NOVAZOI THERANOSTICS, priority 2013, published 2015)

Legend:
PC3 cells = test: subG1 (hypodiploid) fraction by flow cytometry, PC3 cells; type: cell-based
Procedure: (§1) Trypsinized cells were resuspended in PBS at 10^6 cells/ml. Cells were then fixed by addition of ice-cold 70% ethanol. Ethanol-fixed cells were kept overnight at 4° C. before staining. Cells were pelleted and washed twice with PBS. Cell pellets were incubated for an hour at room temperature with mouse anti-MPM-2 antibody (Millipore, Mass., USA), followed by 1 h incubation with Alexa-488 anti-mouse secondary antibody (Life Technologies, NY, USA). Finally cells were washed, pelleted and resuspended in propidium iodide-containing isotonic buffer (0.1 mg/mL) and 0.5% Triton X-100. Cell cycle distribution was determined by flow cytometry using an LSR Fortessa Flow cytometer (BD Biosciences, CA, USA) and analyzed using Flowjo software (Tree Star, OR, USA). […] The duration, highest degree, and rapidity of onset of MA varied between drugs, drug concentrations, and cell lines (FIGS. 2A, 2B). In general, the maximum MA achieved was less pronounced in Nos- and PJ-treated cells (FIGS. 2A, 2B). Drug-induced onset of MA was corroborated by substantial increases in cyclin B1 levels in all cell lines (FIG. 2C). […] Instances where the subG1 fraction was elevated without cleaved caspase-3 may either represent caspase-independent cell death or the presence of hypodiploid cells whose fate is unclear.

[1] = system: human dermal fibroblasts (HDFs); test: Centrosome amplification (CA) by microscopy, HDFs; type: cell-based
Procedure: (§2) Consequently, CA was assessed in cultures treated with different concentrations of declustering drugs for 6, 12, 18, or 24 h and untreated controls via microscopy. Centrosomes were identified by γ-tubulin and centrin-2 colocalization at discrete foci. […] The peak percent CA detected over 24 h is shown in FIG. 6 (only statistically significant (P<0.05) increases over control values are represented in the Figures). Representative confocal micrographs of CA in interphase and mitotic cells, both control and drug treated, are depicted in FIG. 7. No significant correlations between the degree of CA (FIG. 5A) and the expression levels of PLK4, Cyclin E, and Aurora A were found (FIG. 4).
(§3) To determine whether the CA-inducing activity of declustering drugs is restricted to cancer cells, two non-malignant cell lines, mammary fibrocystic (MCF10A) cells and adult human dermal fibroblasts were treated with these drugs. Neither one of RBN, GF or PJ induced CA or cell death (Table 8) in these cell lines. […] In comparison, 10 and 25 μM RBN increased peak CA over controls in interphase cells (p<0.001 and p=0.001, respectively), with the lower concentration dramatically augmenting peak CA to 56% of cells versus 15% for the higher dose (FIG. 9B). Only 10 but not 25 μM RBN increased the extent of CA in mitotic cells, and this upregulation was only slight (10%, p=0.041).

[2] = system: MDA-MB-231 (231), PC3, and HeLa cells; test: Mitotic arrest (MA) by flow cytometry (MPM2/PI), across cell lines; type: cell-based; conditions: coarse-grained categories
Procedure: Trypsinized cells were resuspended in PBS at 10^6 cells/ml. Cells were then fixed by addition of ice-cold 70% ethanol. Ethanol-fixed cells were kept overnight at 4° C. before staining. Cells were pelleted and washed twice with PBS. Cell pellets were incubated for an hour at room temperature with mouse anti-MPM-2 antibody (Millipore, Mass., USA), followed by 1 h incubation with Alexa-488 anti-mouse secondary antibody (Life Technologies, NY, USA). Finally cells were washed, pelleted and resuspended in propidium iodide-containing isotonic buffer (0.1 mg/mL) and 0.5% Triton X-100. Cell cycle distribution was determined by flow cytometry using an LSR Fortessa Flow cytometer (BD Biosciences, CA, USA) and analyzed using Flowjo software (Tree Star, OR, USA).
To evaluate the impact of putative declustering drugs on cell cycle progression and hypodiploidy (<2N DNA content, which may indicate apoptotic cells), MDA-MB-231 (231), PC3, and HeLa cells were treated with different concentrations of declustering drugs, stained with propidium iodide, labeled with anti-MPM2 antibody, and then assessed by flow cytometry at multiple time points over 48 h. […] The duration, highest degree, and rapidity of onset of MA varied between drugs, drug concentrations, and cell lines (FIGS. 2A, 2B). In general, the maximum MA achieved was less pronounced in Nos- and PJ-treated cells (FIGS. 2A, 2B). […]

[3] = system: mammary fibrocystic (MCF10A) cells; test: subG1 (hypodiploid) fraction by flow cytometry, MCF10A cells; type: cell-based; conditions: for Peak subG1 percent over 48 h: MCF10A
MCF10A cells = test: Centrosome amplification (CA) by microscopy, MCF10A cells; type: cell-based; conditions: interphase and mitotic cells, over 24 h
Procedure: as §2, §3

HDFs and MCF10A cells = test: Spindle multipolarity (MP) in non-malignant cell lines; type: cell-based
[4] = system: adult human dermal fibroblasts (HDF); test: subG1 (hypodiploid) fraction by flow cytometry, HDFs; type: cell-based
[5] = system: human ovarian cancer xenografts; conditions: nude mice carrying human ovarian cancer xenografts; cited from earlier work
MDA-MB-231 (231) cells = test: subG1 (hypodiploid) fraction by flow cytometry, 231 cells; type: cell-based
Procedure: as §1

**Q.** For reduced bromonoscapine [RBN], which “Peak subG1 percent over 48 h” value (PC3 cells; 10 μM) is on record?
**A.** Its value is 80.7%.

**Q.** And the “maximum subG1 fraction relative to control” value (PC3 cells; 10 μM)?
**A.** The value was 8 × control.

**Q.** And the “Peak subG1 percent over 48 h” value (PC3 cells; 25 μM)?
**A.** Its value is 73.0%.

**Q.** And the “peak CA in interphase cells” value ([1]; 10 μM)?
**A.** The value was 56%.

**Q.** And the “peak CA in interphase cells” value ([1]; 25 μM)?
**A.** Its value is 15%.

**Q.** What about the “extent of CA in mitotic cells” value ([1]; mitotic, 10 μM) of the same substance?
**A.** The value was 10%.

**Q.** What about the “peak MA (MA:HR), cells in MA” value [2] of the same substance?
**A.** The value was at least 30%.

**Q.** And the “change of peak subG1 percent compared to controls (in words)” value ([3]; MCF10A cells)?
**A.** The value was “did increase peak SubG1 in MCF10A cells compared to controls”.

**Q.** What about the “Peak subG1 percent over 48 h” value ([3]; 10 μM) of the same substance?
**A.** Its value is 36.4%.

**Q.** And the “Peak subG1 percent over 48 h” value ([3]; 25 μM)?
**A.** The value was 44.0%.

**Q.** And the “change of CA over control levels (in words)” value (MCF10A cells)?
**A.** The value was “significantly increased the peak extent of CA in interphase and mitotic MCF10A cells”.

**Q.** And the “induction of MP over control levels” value (HDFs and MCF10A cells)?
**A.** The value was “significantly induce MP over control levels”.

**Q.** What about the “Peak subG1 percent over 48 h” value ([4]; 10 μM) of the same substance?
**A.** Its value is 35.9%.

**Q.** What about the “Peak subG1 percent over 48 h” value ([4]; 25 μM) of the same substance?
**A.** Its value is 39.9%.

**Q.** What about the “toxicity in normal tissues” value [5] of the same substance?
**A.** Its value is “toxicity was not detected in normal tissues”.

**Q.** And the tumor progression [5]?
**A.** The tumor progression was “inhibited tumor progression”.

**Q.** And the “Peak subG1 percent over 48 h” value (MDA-MB-231 (231) cells; 10 μM)?
**A.** Its value is 47.0%.

**Q.** What about the “Peak subG1 percent over 48 h” value (MDA-MB-231 (231) cells; 25 μM) of the same substance?
**A.** Its value is 80.8%.

**Q.** And the “maximum subG1 fraction relative to control” value (MDA-MB-231 (231) cells; 25 μM)?
**A.** The value was 25 × control.
